Experimental data from ChEMBL document CHEMBL1949621, “Fluorocyclines. 1. 7-fluoro-9-pyrrolidinoacetamido-6-demethyl-6-deoxytetracycline: a potent, broad spectrum antibacterial agent” (J Med Chem, 2012).
Values after ≈ are worked out from the molar mass of the structure shown.

Tests used:
Assay type in all cases: functional
Staphylococcus aureus [1] = assay: Antibacterial activity against Staphylococcus aureus ATCC 101 29213
Staphylococcus aureus [2] = assay: Antibacterial activity against tetracycline- and methicillin-resistant Staphylococcus aureus 161
Staphylococcus aureus [3] = assay: microbe, parasite or virus in culture; settings: 158
Enterococcus faecalis [4] = assay: Antibacterial activity against Enterococcus faecalis ATCC 103 29212
Enterococcus faecalis [5] = assay: Antibacterial activity against tetracycline-resistant Enterococcus faecalis 159
Streptococcus pneumoniae [6] = assay: microbe, parasite or virus in culture; settings: ATCC 106 49619
Description: Antibacterial activity against Streptococcus pneumoniae ATCC 106 49619

Streptococcus pneumoniae [7] = assay: Antibacterial activity against tetracycline-resistant Streptococcus pneumoniae 160
Escherichia coli [8] = assay: Antibacterial activity against Escherichia coli ATCC 107 25922
Escherichia coli [9] = assay: Antibacterial activity against tetracycline-resistant Escherichia coli 155
Acinetobacter baumannii = assay: Antibacterial activity against Acinetobacter baumannii ATCC 19606 110
Pseudomonas aeruginosa = assay: Antibacterial activity against Pseudomonas aeruginosa ATCC 111 27853
Enterobacter cloacae = assay: Antibacterial activity against Enterobacter cloacae ATCC 108 13047
Klebsiella pneumoniae [10] = assay: Antibacterial activity against Klebsiella pneumoniae ATCC 109 13883
Klebsiella pneumoniae [11] = assay: Antibacterial activity against tetracycline-resistant Klebsiella pneumoniae 153

SMILES	MIC (Staphylococcus aureus [1]) [µg/mL]	MIC (Staphylococcus aureus [2]) [µg/mL]	MIC (Staphylococcus aureus [3]) [µg/mL]	MIC (Enterococcus faecalis [4]) [µg/mL]	MIC (Enterococcus faecalis [5]) [µg/mL]	MIC (Streptococcus pneumoniae [6]) [µg/mL]	MIC (Streptococcus pneumoniae [7]) [µg/mL]	MIC (Escherichia coli [8]) [µg/mL]	MIC (Escherichia coli [9]) [µg/mL]	MIC (Acinetobacter baumannii) [µg/mL]	MIC (Pseudomonas aeruginosa) [µg/mL]	MIC (Enterobacter cloacae) [µg/mL]	MIC (Klebsiella pneumoniae [10]) [µg/mL]	MIC (Klebsiella pneumoniae [11]) [µg/mL]
CN(C)[C@@H]1C(O)=C(C(N)=O)C(=O)[C@@]2(O)C(O)=C3C(=O)c4c(O)c(NC(=O)CN5CCC5)cc(F)c4C[C@H]3C[C@@H]12	0.125 (≈ 0.23 µM)	0.25 (≈ 0.459 µM)	0.5 (≈ 0.918 µM)	0.0625 (≈ 0.115 µM)	0.125 (≈ 0.23 µM)	0.0156 (≈ 0.0286 µM)	0.0156 (≈ 0.0286 µM)	0.25 (≈ 0.459 µM)	8 (≈ 14.7 µM)	2 (≈ 3.67 µM)	8 (≈ 14.7 µM)	1 (≈ 1.84 µM)	1 (≈ 1.84 µM)	4 (≈ 7.35 µM)
CN(C)[C@@H]1C(O)=C(C(N)=O)C(=O)[C@@]2(O)C(O)=C3C(=O)c4c(O)c(NC(=O)CNC(C)(C)C)cc(F)c4C[C@H]3C[C@@H]12	0.125 (≈ 0.223 µM)	0.25 (≈ 0.446 µM)	0.0625 (≈ 0.111 µM)	0.0625 (≈ 0.111 µM)	0.125 (≈ 0.223 µM)	0.0156 (≈ 0.0278 µM)	0.0156 (≈ 0.0278 µM)	0.25 (≈ 0.446 µM)	2 (≈ 3.57 µM)	0.5 (≈ 0.892 µM)	16 (≈ 28.5 µM)	1 (≈ 1.78 µM)	1 (≈ 1.78 µM)	2 (≈ 3.57 µM)
CN(C)[C@@H]1C(O)=C(C(N)=O)C(=O)[C@@]2(O)C(O)=C3C(=O)c4c(O)c(NC(=O)CN5Cc6ccccc6C5)cc(F)c4C[C@H]3C[C@@H]12	0.25 (≈ 0.412 µM)	0.5 (≈ 0.824 µM)	0.25 (≈ 0.412 µM)	0.25 (≈ 0.412 µM)	0.5 (≈ 0.824 µM)	0.125 (≈ 0.206 µM)	0.125 (≈ 0.206 µM)	2 (≈ 3.3 µM)	4 (≈ 6.59 µM)	0.125 (≈ 0.206 µM)	> 32	32 (≈ 52.8 µM)	4 (≈ 6.59 µM)	32 (≈ 52.8 µM)
CC(C)NCC(=O)Nc1cc(F)c2c(c1O)C(=O)C1=C(O)[C@]3(O)C(=O)C(C(N)=O)=C(O)[C@@H](N(C)C)[C@@H]3C[C@@H]1C2	0.125 (≈ 0.229 µM)	0.25 (≈ 0.457 µM)	0.5 (≈ 0.915 µM)	0.0625 (≈ 0.114 µM)	0.0625 (≈ 0.114 µM)	0.0156 (≈ 0.0285 µM)	0.0156 (≈ 0.0285 µM)	0.5 (≈ 0.915 µM)	8 (≈ 14.6 µM)	1 (≈ 1.83 µM)	16 (≈ 29.3 µM)	1 (≈ 1.83 µM)	1 (≈ 1.83 µM)	4 (≈ 7.32 µM)
CN(C)[C@@H]1CCN(CC(=O)Nc2cc(F)c3c(c2O)C(=O)C2=C(O)[C@]4(O)C(=O)C(C(N)=O)=C(O)[C@@H](N(C)C)[C@@H]4C[C@@H]2C3)C1	8 (≈ 13.3 µM)	> 32	> 32	16 (≈ 26.6 µM)	16 (≈ 26.6 µM)	2 (≈ 3.32 µM)	4 (≈ 6.65 µM)	> 32	> 32	> 32	> 32	> 32	> 32	> 32
CN(C)[C@@H]1C(O)=C(C(N)=O)C(=O)[C@@]2(O)C(O)=C3C(=O)c4c(O)c(NC(=O)CN5CCCCC5)cc(F)c4C[C@H]3C[C@@H]12	0.5 (≈ 0.873 µM)	1 (≈ 1.75 µM)	0.5 (≈ 0.873 µM)	0.25 (≈ 0.437 µM)	0.5 (≈ 0.873 µM)	0.0156 (≈ 0.0272 µM)	0.0156 (≈ 0.0272 µM)	1 (≈ 1.75 µM)	4 (≈ 6.99 µM)	0.125 (≈ 0.218 µM)	32 (≈ 55.9 µM)	4 (≈ 6.99 µM)	2 (≈ 3.49 µM)	4 (≈ 6.99 µM)
CN(C)[C@@H]1C(O)=C(C(N)=O)C(=O)[C@@]2(O)C(O)=C3C(=O)c4c(O)c(NC(=O)CN5CC[C@H](F)C5)cc(F)c4C[C@H]3C[C@@H]12	0.25 (≈ 0.434 µM)	0.5 (≈ 0.867 µM)	1 (≈ 1.73 µM)	0.25 (≈ 0.434 µM)	0.25 (≈ 0.434 µM)	0.0156 (≈ 0.0271 µM)	0.0156 (≈ 0.0271 µM)	2 (≈ 3.47 µM)	32 (≈ 55.5 µM)	0.125 (≈ 0.217 µM)	> 32	4 (≈ 6.94 µM)	4 (≈ 6.94 µM)	32 (≈ 55.5 µM)
CN(C)CC(=O)Nc1cc(F)c2c(c1O)C(=O)C1=C(O)[C@]3(O)C(=O)C(C(N)=O)=C(O)[C@@H](N(C)C)[C@@H]3C[C@@H]1C2	0.0156 (≈ 0.0293 µM)	0.125 (≈ 0.235 µM)	0.25 (≈ 0.469 µM)	0.0156 (≈ 0.0293 µM)	0.0312 (≈ 0.0586 µM)	0.0156 (≈ 0.0293 µM)	0.0156 (≈ 0.0293 µM)	0.125 (≈ 0.235 µM)	8 (≈ 15 µM)	0.125 (≈ 0.235 µM)	8 (≈ 15 µM)	1 (≈ 1.88 µM)	0.5 (≈ 0.939 µM)	8 (≈ 15 µM)
CCNCC(=O)Nc1cc(F)c2c(c1O)C(=O)C1=C(O)[C@]3(O)C(=O)C(C(N)=O)=C(O)[C@@H](N(C)C)[C@@H]3C[C@@H]1C2	0.0625 (≈ 0.117 µM)	0.25 (≈ 0.469 µM)	1 (≈ 1.88 µM)	0.0625 (≈ 0.117 µM)	0.125 (≈ 0.235 µM)	0.0156 (≈ 0.0293 µM)	0.0156 (≈ 0.0293 µM)	0.25 (≈ 0.469 µM)	16 (≈ 30 µM)	2 (≈ 3.76 µM)	8 (≈ 15 µM)	0.5 (≈ 0.939 µM)	1 (≈ 1.88 µM)	8 (≈ 15 µM)
